Where “and” joins values, the source holds several entries; their conditions need not be identical. Equal values may be shown once.
Experiments:
[1] = molecular target: T1, F508del-CFTR in primary CFBE cells (Homo sapiens, UniProt P13569, DEL508-508); test: Ussing chamber assay (short-circuit current); format: cell-based; design: short-circuit current after stimulation by forskolin and genistein: unit not given here; details: 18 h
T1 construct: endogenous in cells; host or cells: primary CFBE cells, air-liquid interface culture
Method: Twelve (12) validated hit compounds from the initial screening and focused validation library were tested for their effect on F508del-CFTR trafficking. Baby hamster kidney (BHK) cells expressing 3HA-tagged F508del-CFTR were treated for 24 h with 10 μM compound. After fixation of the cells, a combination of mouse monoclonal anti-HA antibody and anti-mouse IgG conjugated with FITC was used to detect F508del-CFTR that had trafficked to the plasma membrane as described previously. […] Additionally, a fluorescence imaging plate reader (FLIPR) Membrane Potential (FMP) assay was performed. This assay measures real-time membrane potential changes associated with ion channel activation and ion transporter proteins. F508del-CFTR expressing BHK cells were incubated for 24 h with 20 μM compound before treatment with the potentiator genistein, FMP dye, and activator forskolin. The fluorescence intensity is thus a measure for the function of the CFTR protein in the plasma membrane of these cells. The F508del-CFTR corrector VX-809 (lumacaftor) and the triple combination Trikafta® were used as positive controls in this assay. […] Another cellular assay was performed with the Ussing Chamber, which detects and quantifies transport of ions across epithelial tissue. F508del-CFTR expressing cystic fibrosis epithelial (CFBE) cells were treated for 18 h with 20 μM CY007424. After forskolin and genistein stimulation, the short-circuit current of the cells was measured. […]

14-3-3β/IRS1 peptide = molecular target: T2, 14-3-3β/IRS1 peptide (Homo sapiens, UniProt P31946); test: FP assay of 14-3-3 partner protein peptide, IRS1; format: binding; details: 100 µM compound
T2 construct: His6 (cleaved yes); made in house
T2 sequence (P31946 1-246): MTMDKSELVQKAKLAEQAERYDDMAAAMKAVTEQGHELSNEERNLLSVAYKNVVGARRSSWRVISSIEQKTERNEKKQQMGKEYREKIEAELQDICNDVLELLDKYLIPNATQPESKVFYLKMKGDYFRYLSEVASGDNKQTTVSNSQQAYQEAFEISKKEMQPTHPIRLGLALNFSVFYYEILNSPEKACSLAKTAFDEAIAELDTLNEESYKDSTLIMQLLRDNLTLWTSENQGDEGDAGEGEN
Method: (§1) The FITC-labeled peptides were dissolved in FP buffer (10 mM HEPES pH 7.4, 150 mM NaCl, 0.1% Tween20, 1 mg/mL BSA) to a final concentration of 100 nM or 10 nM. For the dose-response assays, a 14-3-3β concentration of 10 μM was used while titrating the compounds in a two-times dilution series and, for the other assays, a dilution series of 14-3-3β was made with constant concentration of compound. The dilution series were made in 384 Corning Black Round Bottom well plates and their polarization was measured with a Tecan Infinite F500 plate reader (ex. = 485 nm, em. = 535 nm). The method of fitting of the curves was: “log(agonist) vs. response – Variable slope (four parameters)” from GraphPad Prism. The equation is Y = Bottom + (Top-Bottom)/(1 + 10^((LogEC50-X)*HillSlope)).
(§2) Supplementary Figure 2. Stabilization of the interaction between 14-3-3β and a collection of different 14-3-3 partner protein peptides by CY00742 4. […] Background polarization was subtracted from all values, n=3 technical replicates. Source data are provided as a Source Data file.
(§3) (1 picture or pasted object on this page, not shown here)

14-3-3β/p53 peptide = molecular target: T3, 14-3-3β/p53 peptide (Homo sapiens, UniProt P31946); test: FP assay of 14-3-3 partner protein peptide, p53; format: binding; details: CY007424 100 μM
T3 construct: His6 (cleaved yes); made in house
T3 sequence (P31946 1-246): T2 sequence (P31946 1-246)
Method: as §1, §2, §3

T1 sequence (P13569 with tags, fused parts or gaps DEL508-508): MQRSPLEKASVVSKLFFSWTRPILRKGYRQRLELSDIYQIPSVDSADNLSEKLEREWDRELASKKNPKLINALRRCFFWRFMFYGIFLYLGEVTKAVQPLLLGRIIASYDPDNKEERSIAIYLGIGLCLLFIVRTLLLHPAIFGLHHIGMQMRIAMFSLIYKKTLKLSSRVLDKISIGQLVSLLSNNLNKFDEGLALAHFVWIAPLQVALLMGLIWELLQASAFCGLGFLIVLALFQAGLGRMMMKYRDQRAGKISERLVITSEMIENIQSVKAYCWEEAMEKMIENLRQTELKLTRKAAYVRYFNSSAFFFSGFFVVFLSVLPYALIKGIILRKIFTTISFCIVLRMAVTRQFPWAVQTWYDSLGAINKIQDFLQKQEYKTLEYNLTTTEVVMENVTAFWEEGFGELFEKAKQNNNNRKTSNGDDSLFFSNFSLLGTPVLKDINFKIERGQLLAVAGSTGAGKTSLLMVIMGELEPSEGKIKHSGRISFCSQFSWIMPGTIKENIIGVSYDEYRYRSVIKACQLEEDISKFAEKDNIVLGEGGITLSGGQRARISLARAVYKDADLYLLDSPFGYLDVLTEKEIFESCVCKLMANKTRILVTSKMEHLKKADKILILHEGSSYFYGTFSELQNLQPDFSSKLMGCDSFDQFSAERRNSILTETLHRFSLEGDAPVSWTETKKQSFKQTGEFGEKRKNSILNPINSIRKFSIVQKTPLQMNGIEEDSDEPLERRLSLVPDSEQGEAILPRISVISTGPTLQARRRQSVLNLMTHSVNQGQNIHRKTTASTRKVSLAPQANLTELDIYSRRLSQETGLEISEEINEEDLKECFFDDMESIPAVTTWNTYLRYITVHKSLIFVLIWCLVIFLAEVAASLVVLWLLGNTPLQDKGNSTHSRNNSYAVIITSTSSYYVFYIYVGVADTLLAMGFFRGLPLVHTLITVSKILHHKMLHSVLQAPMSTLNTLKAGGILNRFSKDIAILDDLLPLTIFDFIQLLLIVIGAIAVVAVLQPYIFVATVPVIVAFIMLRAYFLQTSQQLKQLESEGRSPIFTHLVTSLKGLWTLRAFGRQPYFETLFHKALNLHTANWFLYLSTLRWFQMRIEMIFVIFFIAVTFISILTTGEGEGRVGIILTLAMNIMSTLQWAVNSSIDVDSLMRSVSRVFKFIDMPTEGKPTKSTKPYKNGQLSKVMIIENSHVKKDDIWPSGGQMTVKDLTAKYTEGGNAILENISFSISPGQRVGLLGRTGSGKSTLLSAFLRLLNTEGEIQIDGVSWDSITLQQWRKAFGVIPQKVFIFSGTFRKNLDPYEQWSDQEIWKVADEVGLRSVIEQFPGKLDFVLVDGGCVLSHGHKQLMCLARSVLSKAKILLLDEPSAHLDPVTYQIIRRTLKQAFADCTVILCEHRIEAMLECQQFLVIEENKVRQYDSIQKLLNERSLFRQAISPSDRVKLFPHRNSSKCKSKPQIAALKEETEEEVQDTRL

- conductance (short-circuit current) in words ([1]; 20 μM, forskolin and genistein stimulation): higher conductance than the DMSO control
- stabilization of the 14-3-3/IRS1 peptide complex (14-3-3β/IRS1 peptide): some stabilization of the complex
- FP signal (14-3-3β/p53 peptide; 14-3-3β 59.6 pM): 4 and 3
- FP signal (14-3-3β/p53 peptide; 14-3-3β 119.2 pM): 4 and 3
- FP signal (14-3-3β/p53 peptide; 14-3-3β 3.8147e-9 M): 4 and 7
- FP signal (14-3-3β/p53 peptide; 14-3-3β 7.62939e-9 M): 7 and 6 and 4
- FP signal (14-3-3β/p53 peptide; 14-3-3β 1.52588e-8 M): 5 and 3 and 4
- FP signal (14-3-3β/p53 peptide; 14-3-3β 3.05176e-8 M): 3 and 5 and 4
- FP signal (14-3-3β/p53 peptide; 14-3-3β 6.10352e-8 M): 10 and 9
- FP signal (14-3-3β/p53 peptide; 14-3-3β 1.2207e-7 M): 13 and 15
- FP signal (14-3-3β/p53 peptide; 14-3-3β 2.44141e-7 M): 15 and 18
- FP signal (14-3-3β/p53 peptide; 14-3-3β 4.88281e-7 M): 20 and 24 and 21
- FP signal (14-3-3β/p53 peptide; 14-3-3β 9.76563e-7 M): 21 and 25 and 23
- FP signal (14-3-3β/p53 peptide; 14-3-3β 1.95313e-6 M): 20 and 22 and 21
- FP signal (14-3-3β/p53 peptide; 14-3-3β 3.90625e-6 M): 21 and 20
- FP signal (14-3-3β/p53 peptide; 14-3-3β 7.8125e-6 M): 24 and 20 and 21
- FP signal (14-3-3β/p53 peptide; 14-3-3β 1.5625e-5 M): 17 and 22 and 25
- FP signal (14-3-3β/p53 peptide; 14-3-3β 3.125e-5 M): 26 and 24 and 29
- FP signal (14-3-3β/p53 peptide; 14-3-3β 6.25e-5 M): 31 and 32 and 34
- FP signal (14-3-3β/p53 peptide; 14-3-3β 0.000125 M): 44 and 45 and 48
- FP signal (14-3-3β/p53 peptide; 14-3-3β 0.00025 M): 66 and 67 and 63
Compound: N=C(N)NCCCC1NCc2ccccc2Sc2ccccc2CNC(=O)C(Cc2ccc(O)cc2)NC(=O)C(CCCN)NC1=O (stereo not shown) [CY007424]
- short-circuit current after stimulation by forskolin and genistein ([1]; 20 μM CY07424, 1 μM VX-809, biological replicates): 1.424 and 1.182 and 1.788 (2×) and 1.697 and 2.091

— publication PMC9226124, “Macrocycle-stabilization of its interaction with 14-3-3 increases plasma membrane localization and activity of CFTR” (Nature Communications, 2022)
